Measured values reported in paper PMC8252455, “Prediction of a clinically effective dose of THY1773, a novel V 1B receptor antagonist, based on preclinical data” (Biopharmaceutics & Drug Disposition, 2021).

Tests used:
[1] = Parallel artificial membrane permeability assay (PAMPA); type: in vitro ADME
Method: The membrane permeability of THY1773 was measured using a parallel artificial membrane permeability assay (PAMPA) Evolution instrument (Pion Inc.). A “sandwich” plate consisting of a donor bottom plate with stir bars and an acceptor filter plate was used for the experiment. A donor plate was prepared by the addition of THY1773 to diluted PRISMA HT at pH 6.2 (final concentration of 12.5 μmol/L). An acceptor plate was coated with GIT‐0 lipid solution, followed by the addition of acceptor sink buffer (pH 7.4). After incubation for 4 h at room temperature, the concentrations of THY1773 in the reference, donor, and acceptor solutions were measured with a UV plate reader. The apparent permeability (Papp) was calculated using the PAMPA Evolution software (version 3.1; Pion Inc.).

[2] = Prediction of human CLtotal (FCIM, two-species allometry, IVIVE)
From the text: Of the many reported methods for the prediction of human CL, the top two methods reported by Ring et al. (2011) were selected based on prediction accuracy; that is, the unbound fraction corrected intercept method (FCIM) and two‐species‐based allometry (rat and dog) described by Equations (2) and (3), respectively (Tang, Hussain, Leal, Mayersohn, & Fluhler, 2007; Tang & Mayersohn, 2005): (2) CLhuman(mL/min/kg)=33.35×(a/Rfu)^0.77/Humanbodyweight(kg) (3) CL=a×(Humanbodyweight)^0.628 where the allometric coefficient (a) is obtained from the intercept of the simple allometry log–log plot between rats and dogs, and Rfu is the ratio of unbound fraction in plasma between rats and humans. Human body weight was assumed to be 70 kg. The hepatic CL (CLliver) was also predicted by physiologically based in vitro–in vivo extrapolation (IVIVE) method using physiological parameters listed in Table 1 based on the well stirred model (Yang, Jamei, Yeo, Rostami‐Hodjegan, & Tucker, 2007).
Since the CLliver was underestimated in rats and dogs from CLint in liver microsomes, the ratio of observed in vivo CLint and predicted CLint was calculated as the empirical scaling factor (ESF) for the extrapolation of CLliver from in vitro data. Human CLliver was predicted from CLint in HLMs with and without applying the average of ESF derived from rats and dogs. The total plasma clearance (CLtotal) was calculated by Equation (4): (4) CLtotal=QH×fu×(CLint/fu,mic)/QH+(fu/Rb)×(CLint/fu,mic)+CLrenal where QH is hepatic blood flow, fu is the free fraction in plasma, fu,mic is the fraction unbound in HLMs, Rb is blood‐to‐plasma ratio, and CLrenal is renal clearance. The fu,mic value was calculated using the Simcyp population based simulator (Version 16 R1; Simcyp Ltd.). The CLrenal was estimated by multiplying fu by glomerular filtration rate (GFR), assuming glomerular filtration only.
(§1) The fold error of the difference between observed and predicted human PK parameters was calculated by dividing the predicted value by the observed value.

[3] = Prediction of human Vdss
From the text: Human Vdss was also predicted by the two methods reported to be the best methods based on the prediction accuracy (Jones et al., 2011), which were Øie‐Tozer method (Obach et al., 1997) and rat–dog–human proportionality equation described (Wajima, Fukumura, Yano, & Oguma, 2003) by Equations (6) and (7), respectively: (6) Vdss[L/kg]=Vp×(1+RE/I)+Vp×fu×(Ve/Vp−RE/I)+Vr×fu/fu,t (7) log(Vdss,human)=0.07714×log(Vdss,rat)×log(Vdss,dog)+0.5147×log(Vdss,dog)+0.586 where fu,t is the fraction unbound in tissues, RE/I is the ratio of binding protein in the extracellular fluid to that in plasma, Ve, Vp, and Vr is the extracellular, plasma, and remaining fluid volume, respectively. Volumes and plasma protein levels were used as described by Obach et al. (1997).
as §1

[4] = biological target: T1, pituitary V1B receptor (Homo sapiens, UniProt P47901); assay: Phase 1 RO study using PET; type: in vivo; settings: unpublished data
T1 construct: from tissue; host or cells: pituitary gland of human subjects, in vivo PET
T1 sequence (P47901 1-424): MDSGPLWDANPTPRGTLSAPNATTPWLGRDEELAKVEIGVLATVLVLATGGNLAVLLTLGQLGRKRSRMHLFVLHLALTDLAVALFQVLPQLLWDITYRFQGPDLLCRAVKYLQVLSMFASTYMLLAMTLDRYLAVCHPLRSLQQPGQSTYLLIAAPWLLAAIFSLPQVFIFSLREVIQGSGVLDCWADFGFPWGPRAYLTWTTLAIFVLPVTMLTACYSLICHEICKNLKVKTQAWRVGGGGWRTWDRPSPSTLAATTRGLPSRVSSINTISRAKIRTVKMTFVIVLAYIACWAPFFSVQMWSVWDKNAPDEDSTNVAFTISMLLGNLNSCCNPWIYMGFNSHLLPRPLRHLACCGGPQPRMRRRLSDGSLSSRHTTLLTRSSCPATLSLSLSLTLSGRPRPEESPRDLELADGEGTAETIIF

[5] = tested on: plasma ACTH; set-up: method as in Kamiya et al., 2020; settings: rats, oral, doses with >50% V1B occupancy; ref Kamiya et al., 2020; cited from earlier work

## CC(C)NC(=O)Cn1c(-c2cccc(Cl)c2)nn(-c2ccc(CCN3CCOCC3)cc2)c1=O [THY1773]
[1]; donor pH 6.2, 12.5 μmol/L, 4 h, room temperature
  Papp in PAMPA: 128.9 10^−6 cm/s
[1]; pH 6.2
  Permeability in the gut (assessment from PAMPA): high permeability
[2]; FCIM
  Predicted human CLtotal: 1.07 mL/min/kg
[2]; IVIVE method with ESF
  Predicted human CLtotal: 1.06 mL/min/kg
[2]; IVIVE method without ESF
  Predicted human CLtotal: 0.25 mL/min/kg
[2]; Two species allometry (rat and dog)
  Predicted human CLtotal: 3.73 mL/min/kg
[3]; Rat–dog–human proportionality equation
  Predicted human Vdss: 1.38 L/kg
[3]; Single species scaling (rat)
  Predicted human Vdss: 0.349 L/kg
[3]; Øie‐Tozer method
  Predicted human Vdss: 0.404 L/kg
[4]; 10 mg
  V1B RO at steady state (PET): 55.3%
[4]; 50 mg
  V1B RO at steady state (PET): 75.1%
[4]; human PET
  In vivo EC50 for V1B RO compared with in vitro Ki for human V1B receptor: comparable (within twofold)
[5]
  Effect on increase in plasma ACTH induced by CRF/desmopressin challenge: significantly inhibited
